The values below come from article PMC10770970, “Synthesis and cytotoxic activity evaluation of novel imidazopyridine carbohydrazide derivatives” (BMC Chemistry, 2024).

Structures are written as SMILES. Some results are limits rather than exact numbers.

For data set [1], the system named is MCF-7 (human breast adenocarcinoma) cells. Briefly: MTT reduction cytotoxicity assay, MCF-7. Conditions: ± S.E.M., max tested 100 µM. The data set is classed as cell-based. As to the method:
(§1) All synthesized compounds were evaluated for cytotoxic activity against three human cancer cell lines including MCF-7, HT-29, and K562 by employing an MTT (3-(4,5-dimethylthiazol-2-yl)-2,5-diphenyltetrazolium bromide) assay. […] Cisplatin and doxorubicin were tested as standard chemotherapeutic reference agents.
(§2) MCF-7 (human breast adenocarcinoma), HT-29 (Human colorectal adenocarcinoma), K562 (human chronic myelogenous leukemia), and Vero (kidney epithelial cells of African green monkey) cells were obtained from Iranian Biological Resource Center, Tehran, Iran. MCF-7, K562, and Vero cells were cultured in RPMI 1640 medium containing 10% heat-inactivated fetal bovine serum (FBS) and 1% penicillin/streptomycin, while HT-29 cells were grown in DMEM low glucose, containing 20% heat-inactivated FBS and 1% penicillin/streptomycin. All cells were grown in monolayer culture at 37 °C in a humidified incubator with 5% CO2.
(§3) Assessment of cell viability after exposure of cancer and non-cancer cells to synthetic compounds was performed using the MTT (3-(4,5-dimethylthiazol-2-yl)-2,5-diphenyltetrazolium bromide) reduction assay. Cells were plated in 96-well microplates at densities of 30,000 cells/mL (100 μL in each well). The plates were incubated overnight at 37 °C and then 50 μL of the growth medium was replaced with the same amount of fresh medium containing 3–4 different concentrations of synthesized analogs at the final concentrations of 10–100 µM. Test compounds were initially dissolved in DMSO and then diluted in the growth medium. The upper limit of DMSO concentration in each well was 0.5%. After 72 h of incubation, 80 μL of the solution in each well was substituted with the same quantity of the growth medium comprising of MTT solution at 0.5 mg/mL. Cells were subsequently incubated at 37 °C for 4 h and then 80 μL of the solution in each well was removed. The introduction of DMSO (200 μL) to each well caused the formazan crystals formed inside the viable cells to dissolve. The process lasted 1.5 h (1 h of incubation and 30 min of shaking). The optical absorbance of the final solution was quantified at the wavelength of 570 nm using a microplate reader. IC50 values for all derivatives were calculated using CurveExpert 1.34 software.
A general note: Tetrazolium dyes change colour on reduction, which living cells bring about.

Data set [2] concerns HT-29 (Human colorectal adenocarcinoma) cells. Briefly: MTT reduction cytotoxicity assay, HT-29. The data set is classed as cell-based. Conditions: ± S.E.M., max tested 100 µM. As to the method:
as §1, §2, §3

Data set [3] concerns Vero (kidney epithelial cells of African green monkey) cells. Put plainly: MTT reduction cytotoxicity assay, Vero non-cancer cells. The data set is classed as cell-based. Conditions: 72 h, ± S.E.M., max tested 100 µM. As to the method:
as §1, §2, §3

Data set [4] deals with K562 (human chronic myelogenous leukemia) cells. Briefly: MTT reduction cytotoxicity assay, K562. The data set is classed as cell-based. Conditions: ± S.E.M., max tested 100 µM. As to the method: as §1, §2, §3

Broadly, the IC50 is the point on the concentration scale where inhibition reaches its midpoint. A higher IC50 goes with a need for much substance. Turning to `N.N.[Cl][Pt][Cl]` [Cisplatin, reference compound], the IC50 in data set [1] (72 h) turned out to be 25.9 ± 6.9 µM; in data set [2] (72 h), 22.4 ± 5.8 µM; in data set [3], 10.6 ± 1.3 µM; in data set [4] (72 h) it was 9.4 ± 0.5 µM.

On to `NNC(=O)c1cn2ccccc2n1` [Compound 5, imidazo[1,2-a]pyridine-2-carbohydrazide], for which the IC50 is > 100 µM in data set [1] (Homo sapiens, MCF7, 72 h); > 100 µM in data set [2] (Homo sapiens, HT-29, 72 h); > 100 µM in data set [4] (Homo sapiens, K562, 72 h).

The term melting point denotes the temperature, or range, at which the solid turns liquid. `O=C(NN=Cc1ccccc1)c1cn2ccccc2n1` [Compound 7a, N´-benzylidene imidazo[1,2-a]pyridine-2-carbohydrazide]: the melting point lay within 257 to 259 °C. The IC50 in data set [1] (Homo sapiens, MCF7, 72 h) is > 100 µM. Also, the half-inhibitory concentration (IC50) in data set [2] (Homo sapiens, HT-29, 72 h) is > 100 µM. In data set [4] (Homo sapiens, K562, 72 h), the IC50 was > 100 µM.

Compound `O=C(NN=Cc1ccc(F)cc1)c1cn2ccccc2n1` [Compound 7b, N´-(4-fluorobenzylidene)imidazo[1,2-a]pyridine-2-carbohydrazide] registered a melting point of 234 to 236 °C. Further, the IC50 in data set [1] (Homo sapiens, MCF7, 72 h) was > 100 µM. The IC50 in data set [2] (Homo sapiens, HT-29, 72 h) was > 100 µM. The IC50 in data set [4] (Homo sapiens, K562, 72 h) was > 100 µM.

The compound `O=C(NN=Cc1ccc(Cl)cc1)c1cn2ccccc2n1` [Compound 7c, N´-(4-chlorobenzylidene)imidazo[1,2-a]pyridine-2-carbohydrazide] showed a melting point of 226 to 228 °C. In addition, 64.8 ± 11.8 µM corresponded to half-maximal inhibition in data set [1] (Homo sapiens, MCF7, 72 h) (IC50). In addition, the IC50 in data set [2] (Homo sapiens, HT-29, 72 h) amounted to 85.4 ± 10.3 µM. For the same compound, the IC50 in data set [3] (Chlorocebus sabaeus, Vero) came to 65.6 ± 4.5 µM. The IC50 in data set [4] (Homo sapiens, K562, 72 h) was > 100 µM.

Take `Cc1ccc(C=NNC(=O)c2cn3ccccc3n2)cc1` [Compound 7e, N´-(4-methylbenzylidene)imidazo[1,2-a]pyridine-2-carbohydrazide]: the melting point fell in the range of 180 to 182 °C. Besides, the IC50 in data set [1] (Homo sapiens, MCF7, 72 h) is > 100 µM. Besides, the IC50 in data set [2] (Homo sapiens, HT-29, 72 h) was > 100 µM. In addition, in data set [4] (Homo sapiens, K562, 72 h), the half-inhibitory concentration (IC50) was > 100 µM.

`C#CCNNC(=O)c1cn2ccccc2n1` [Compound 9, N´-(Prop-2-yn-1-yl) imidazo[1,2-a]pyridine-2-carbohydrazide] had a melting point of 142 to 144 °C. For the same compound, in data set [1] (Homo sapiens, MCF7, 72 h), half-maximal inhibition (IC50) required 70.1 ± 5.3 µM. This compound had an IC50 in data set [2] (Homo sapiens, HT-29, 72 h) of 21.4 ± 1.9 µM. Also, half-maximal inhibition in data set [3] (Chlorocebus sabaeus, Vero) (IC50) was put at 73 ± 9.9 µM. In data set [4] (Homo sapiens, K562, 72 h), this compound displayed an IC50 of 23.7 ± 2.3 µM.

With `O=C(NNCc1cn(Cc2ccccc2)nn1)c1cn2ccccc2n1` [Compound 11a, N´-((1-benzyl-1H-1,2,3-triazol-4-yl)methyl)imidazo[1,2-a]pyridine-2-carbohydrazide], the IC50 was 40.3 ± 2.9 µM in data set [1] (Homo sapiens, MCF7, 72 h); 61.2 ± 6.3 µM in data set [2] (Homo sapiens, HT-29, 72 h); > 100 µM in data set [3] (Chlorocebus sabaeus, Vero); > 100 µM in data set [4] (Homo sapiens, K562, 72 h). The “IC50 Vero” value in data set [3] was “completely inactive”.

`O=C(NNCc1cn(Cc2ccc(F)cc2)nn1)c1cn2ccccc2n1` [Compound 11b, N´-((1-(4-fluorobenzyl)-1H-1,2,3-triazol-4-yl)methyl)imidazo[1,2-a]pyridine-carbohydrazide] yielded a melting point of 205 to 207 °C. Besides, the IC50 in data set [1] (Homo sapiens, MCF7, 72 h) is > 100 µM. Also, in data set [2] (Homo sapiens, HT-29, 72 h), the IC50 is > 100 µM. For the same compound, the IC50 in data set [4] (Homo sapiens, K562, 72 h) is > 100 µM.

As to `O=C(NNCc1cn(Cc2ccc(Cl)cc2)nn1)c1cn2ccccc2n1` [Compound 11c, N´-((1-(4-chlorobenzyl)-1H-1,2,3-triazol-4-yl)methyl)imidazo[1,2-a]pyridine-carbohydrazide], the melting point fell in the range of 193 to 195 °C. In data set [1] (Homo sapiens, MCF7, 72 h), the IC50 is > 100 µM. The IC50 in data set [2] (Homo sapiens, HT-29, 72 h) is > 100 µM. The IC50 in data set [4] (Homo sapiens, K562, 72 h) was > 100 µM.

`O=C(NNCc1cn(Cc2ccc(Br)cc2)nn1)c1cn2ccccc2n1` [Compound 11d, N´-((1-(4-bromobenzyl)-1H-1,2,3-triazol-4-yl)methyl)imidazo[1,2-a]pyridine-carbohydrazide] came in with a melting point of 186 to 188 °C. Further, in data set [1] (72 h), the “IC50 MCF-7” value is “no activity”. Moreover, the IC50 in data set [1] (Homo sapiens, MCF7, 72 h) was > 100 µM. Moreover, in data set [2] (72 h), the midpoint of inhibition, the IC50, lay at 83.8 ± 13.1 µM. The IC50 in data set [2] (Homo sapiens, HT-29, 72 h) was determined as 83.9 µM. Further, in data set [3], the “IC50 Vero” value is “completely inactive”. For the same compound, in data set [3] (Chlorocebus sabaeus, Vero), the IC50 was > 100 µM. In addition, the “IC50 K562” value in data set [4] (72 h) is on record as “no activity”. Also, the IC50 in data set [4] (Homo sapiens, K562, 72 h) was > 100 µM.

Turning to `Cc1ccc(Cn2cc(CNNC(=O)c3cn4ccccc4n3)nn2)cc1` [Compound 11e, N´-((1-(4-methylbenzyl)-1H-1,2,3-triazol-4-yl)methyl)imidazo[1,2-a]pyridine-carbohydrazide], the melting point was in the range of 140 to 142 °C. Moreover, the IC50 in data set [1] (Homo sapiens, MCF7, 72 h) was > 100 µM. The concentration for half-maximal inhibition (IC50) in data set [2] (Homo sapiens, HT-29, 72 h) is > 100 µM. In addition, the IC50 in data set [4] (Homo sapiens, K562, 72 h) was > 100 µM.

In data set [3] (Chlorocebus sabaeus, Vero), `COc1cccc2c1C(=O)c1c(O)c3c(c(O)c1C2=O)C[C@@](O)(C(=O)CO)C[C@@H]3O[C@H]1C[C@H](N)[C@H](O)[C@H](C)O1` [Doxorubicin, reference compound] yielded an IC50 of 2.6 ± 0.3 µM.
